In PubChem BioAssay (NCI):
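Test compounds were applied to cells in 96-well plates for 48 hours at 5 doses. TGI: total growth inhibition.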

Legend:
Assay in all cases: NCI anticancer screen, dose series, 48 h
A549 NSCLC = test system: A549 NSCLC
MDA-MB-435 = test system: MDA-MB-435
HOP-62 NSCLC = test system: HOP-62 NSCLC
A498 renal = test system: A498 renal
IGROV1 ovarian = test system: IGROV1 ovarian
HCC-2998 colon = test system: HCC-2998 colon
OVCAR-5 ovarian = test system: OVCAR-5 ovarian
SN12C renal = test system: SN12C renal
K-562 leukemia = test system: K-562 leukemia
HL-60(TB) leukemia = test system: HL-60(TB) leukemia
SK-MEL-5 melanoma = test system: SK-MEL-5 melanoma
TK-10 renal = test system: TK-10 renal
KM12 colon = test system: KM12 colon
SF-539 CNS = test system: SF-539 CNS
SNB-19 CNS = test system: SNB-19 CNS
HOP-92 NSCLC = test system: HOP-92 NSCLC
MOLT-4 leukemia = test system: MOLT-4 leukemia
SF-268 CNS = test system: SF-268 CNS
U251 CNS = test system: U251 CNS
SNB-75 CNS = test system: SNB-75 CNS

SMILES	TGI (A549 NSCLC) [µM]	TGI (MDA-MB-435) [µM]	TGI (HOP-62 NSCLC) [µM]	TGI (A498 renal) [µM]	TGI (IGROV1 ovarian) [µM]	TGI (HCC-2998 colon) [µM]	TGI (OVCAR-5 ovarian) [µM]	TGI (SN12C renal) [µM]	TGI (K-562 leukemia) [µM]	TGI (HL-60(TB) leukemia) [µM]	TGI (SK-MEL-5 melanoma) [µM]	TGI (TK-10 renal) [µM]	TGI (KM12 colon) [µM]	TGI (SF-539 CNS) [µM]	TGI (SNB-19 CNS) [µM]	TGI (HOP-92 NSCLC) [µM]	TGI (MOLT-4 leukemia) [µM]	TGI (SF-268 CNS) [µM]	TGI (U251 CNS) [µM]	TGI (SNB-75 CNS) [µM]
COc1cc(C=C2C(C)=NN(c3cccc(Cl)c3)C23SCC(=O)N3c2nc3ccccc3s2)ccc1O (stereo not drawn)	> 100	> 100	91.5	66	> 100	> 83.5	> 100	> 100	37.2	26.7	40.7	> 100	> 95.1	> 58.4	> 100	45.4	35.1	57.9	41.4	
CCC1NC(=O)C1NC(=O)OC (stereo not drawn)		> 100	> 100	> 100	> 100	> 100	> 100	> 100	> 100	> 100	> 100	> 100	> 100	> 100	> 100	> 100	> 100		> 100	> 100
O=[N+]([O-])c1ccc(-c2nnc(C34CC5CC(CC(C5)C3)C4)o2)cc1	> 100	> 100	> 100	> 100	> 100	> 100	> 100	> 100	> 100	> 100	> 100	> 100	> 100	> 100	> 100	> 100	> 100	> 100	> 100	> 100
CC(=O)CCCCC(=O)Nc1ccc(CC(NC(=O)OC(C)(C)C)C(=O)NCC(=O)OCc2ccccc2)cc1 (stereo not drawn)	> 100	36	26.8	60.6	> 100	38	> 100	64.4	47.6	43.6	27.8	> 100	52.1	34.1	55	68	66.4	48.3	32.7	
CS(=O)(=O)N1CC(CCl)c2ccc([N+](=O)[O-])cc21 (stereo not drawn)	> 100	> 100	> 100	> 100	> 100	> 100	> 100	> 100	> 100	> 100	> 100	> 100	> 100	> 100	> 100	> 100	> 100	> 100	> 100	
O=[N+]([O-])C(C(Cl)=C(Cl)Cl)=C(N(Cc1ccccc1)Cc1ccccc1)N(Cc1ccccc1)Cc1ccccc1	> 100	79.8	> 100	86.6	> 100	55.4	> 100	> 100	> 100	78	> 100	> 100	> 100	76.6	> 100	57.1	> 100	> 100	> 100	> 100
CC(NNC(=O)c1ccncc1)c1ccc(F)cc1 (stereo not drawn)	> 100	> 100	> 100	> 100	> 100	> 100	> 100	> 100	> 100	> 100	> 100	> 100	> 100	> 100	> 100	> 100	> 100	> 100	> 100	> 100
C=CC/C=C/Cc1csc(C(C)(C)C(O)C/C=C/C(=C)CCNC(=O)OC)n1 (stereo not drawn)	> 100	> 100	> 100	> 100	> 100	> 100	> 100	> 100	> 81.5	> 79.4	> 60.5	> 100	> 100	> 100	> 100	> 100	> 100	> 100	> 100	> 83.8
O=C1C=C2C(=NC34CCCCC3C(c3ccccc3)C3=C(c5ccccc5CC3)N24)c2ccccc21 (stereo not drawn)	> 10	> 10	> 10	> 10	> 10	> 10	> 10	> 10	> 10	> 10	> 10	> 10	> 10	> 10	> 10	> 10	> 10	> 10	> 10	> 10
COc1ccc(OCc2nc3cc(C(F)(F)F)ccc3nc2-c2ccccc2)cc1	> 100	> 100	> 100	> 100		> 100	> 100	> 100	> 100	> 100	> 100	> 100	> 100	> 100	> 100	> 100	> 100	> 100	> 100	> 100
CN(C)CCCNC(=O)CCNC(=O)c1cc(NC(=O)c2cc(NC(=O)c3cc(NC(=O)c4nc(NC(=O)CCCNC(=O)c5cc(NC(=O)c6cc(NC(=O)c7cc(NC(=O)c8nccn8C)cn7C)cn6C)cn5C)cn4C)cn3C)cn2C)cn1C	> 100	> 100	> 100	> 100	> 100	> 100	> 100	> 100	> 100	> 100	> 100	> 100	> 100	> 100	> 100	> 100	> 100	> 100	> 100	> 100
CCC1C(C#N)=C(N)OC2=C1C(=O)CC(C)(C)C2 (stereo not drawn)	> 100	> 100	> 100	> 100	> 100	> 100	> 100	> 100		> 100	> 100	> 100	> 100	> 100	> 100	> 100	> 100	> 100	> 100	
C=CCOc1ccc(/C(N=Nc2ccc([N+](=O)[O-])cc2)=N/NC(=O)c2ccccc2)cc1OC	> 100	> 100	> 100	> 100	> 100	> 100	> 100	> 100		> 100	> 100	> 100	> 100	> 100	> 100	> 100	> 100	> 100	> 100	> 100
CC(=O)OCOC(=O)CN(CC(=O)OCOC(C)=O)Cc1cc2c(cc1OC(C)=O)Oc1cc(OC(C)=O)c(CN(CC(=O)OCOC(C)=O)CC(=O)OCOC(C)=O)cc1C21OC(=O)c2ccccc21	4.82	2.02	3.48	2.61	1.36		11.1	2.83	0.401	0.0289	2.12	3		1.05	6.16	3.06	0.843	4.22	8.5	9.39
CCOC(=O)C1(C(=O)OCC)Nc2cccnc2N(C)N1	> 100	36	> 100	52.4	42.1			36	49.9	58	34.2	40.1	> 100	30.7	> 100	29.7	55.3	> 100	41.4	> 100
CN(CC1(CO)CCC1)c1cc(Cl)nc(N)n1	> 100	> 100	> 100	> 100	> 100	> 100	> 100	> 100	> 100	> 100	> 100	> 100	> 100	> 100	> 100	> 100	> 100	> 100	> 100	> 100
COC(O)C(=O)c1c2c(cc3c1CC1(Cc4cc5c(cc4C1)CCC5)C3)CCC2 (stereo not drawn)	32.6	6.58	30.2	31.8	26	42.8	33.5		36.2	44.3	31.3	32.1		31.5	36.1	31	33.8	36.1	25.7	31.6
CC[C@H]1C=CCC[C@@]2(C[C@@H]3CC[C@@H]4[C@H](C(=O)OCCCCCCCCCCCCCCCC(=O)O)[C@]5(CCC[C@@H](C)O5)NC(=[N+]34)N2)O1	5.87	6.27	3.6	1.23	8.93	0.283	8.73	7.93	5.73	0.636	0.251	8.73	5.76	3.12	9.46	0.615	2.84	3.07	0.903	
O=C1c2c(ccc3c2CCCC3)CC12Cc1ccc3c(c1C2=O)CCCC3	> 100	> 100	> 100	> 100	> 100	> 100	> 100		> 100	> 100	> 100	> 100		> 100	> 100	> 100	> 100	> 100	> 100	> 100
CCOC(=O)c1c(N2CCCC2)nsc1Nc1ccc(F)cc1	> 100	> 100	> 100	> 100	> 100	> 100	89.7	> 100	> 100	58.8	34.3	> 100	> 100	> 100	> 100	95.7	70.1	> 100	> 100	
S=c1sc2c(s1)SCCCCSCCCCSc1sc(=S)sc1SCCCCSCCCCS2	> 100	> 100	> 100	> 100	> 100	> 100	> 100	> 100	> 100	> 100	> 100	> 100	> 100	> 100	> 100		> 100	> 100	> 100	59.2
CCOC(=O)N/N=C(/OCC)c1ccccc1	> 100	> 100	> 100	> 100	> 100	> 100	> 100	> 100	> 100	> 100	> 100	> 100	> 100	> 100	> 100	> 100	> 100	> 100	> 100	
NC1CC(=O)c2sc(I)cc21 (stereo not drawn)	> 100	> 100	> 100	> 100	> 100	> 100	> 100	> 100	> 100	78.7	> 100	> 100	> 100	> 100	> 100		> 100	> 100	> 100	> 100
